Assay results published in US6699681B2, “Endothelin converting enzymes and the amyloid β peptide” (Mayo Foundation for Medical Education and Research, priority 2000, dated 2004).

What was measured:
[1] = tested on: ECE-transfected CHO cells; assay: Aβ concentration in conditioned medium of ECE-1a- or ECE-1b-transfected CHO cells; format: cell-based, hamster
Method: (§1) Human and guinea pig Aβ40 or Aβ42 was measured in plasma by sandwich ELISA as previously described (Suzuki et al., 1994, Science, 264:1336-1340) using the BAN-50/BA-27 or BAN-50/BC-05 antibody systems, respectively (Takeda; Japan). Hamster Aβ40- or Aβ42-derived from CHO cells was measured using the BNT-77/BA-27 or BNT-77/BC-05 antibody systems, respectively. Aβ concentration in samples was determined by comparison to synthetic Aβ40 or Aβ42 standards (Bachem, Switzerland). Data was obtained from triplicate wells.
In particular, the sandwich ELISA used herein was performed as follows: 96-well microtiter plates were coated overnight at 4° C. with 100 μl of a 5 μg/ml dilution of primary antibody in sodium carbonate coating buffer (SCCB; 0.1 M Na2CO3, pH 9.6). Plates were blocked overnight at 4° C. with 300 μl of BLOCKAGE Solution (PBS+1.0% BLOCKAGE (Snow Brand Milk Products, Japan), 0.05% NaN3, pH 7.4). Samples for analysis and synthetic Aβ standards (Bachem, Switzerland) were diluted in buffer EC (0.02 M NaH2PO4, 0.002 M EDTA, 0.4 M NaCl, 0.2% BSA, 0.05% CHAPS, 0.04% BLOCKAGE, 0.05% NaN3, pH 7.0) and allowed to incubate on the plates overnight at 4° C. Plates were washed twice with PBS (8 mM Na2HPO4, 1.5 mM KH2PO4, 139 mM NaCl, 2.7 mM KCl, pH 7.4) and 100 μl of secondary antibody directly coupled to HRP (EZ-LINK™ Plus Activated Peroxidase kit (contents of kit: peroxidase, 5 M sodium cyanoborohydride solution (NaBH3CN), quenching buffer (3 M ethanolamine, pH 9.0), BupH™ phosphate buffered saline, Buph™ carbonate-bicarbonate buffer), according to manufacturers directions; Pierce Chemical Co., Rockford, Ill.) was allowed to bind either 4 hrs at room temperature or overnight at 4° C. Plates were then washed twice with PBS containing 0.05% Tween 20 followed by two additional washes in PBS. […] Plates were read at 450 nm in a SpectraMax Plus spectrophotometer (Molecular Devices; Sunnyvale, Calif.) and analyzed by SOFTmax® PRO software. Aβ40 or Aβ42 were quantitated by comparison with the values obtained for each synthetic Aβ standard from the same plate. […]

HUVEC cells = assay: Aβ accumulation in HUVEC cells treated with phosphoramidon; format: cell-based, human; details: high doses of phosphoramidon
Method: as §1
In particular, the sandwich ELISA used herein was performed as follows: 96-well microtiter plates were coated overnight at 4° C. with 100 μl of a 5 μg/ml dilution of primary antibody in sodium carbonate coating buffer (SCCB; 0.1 M Na2CO3, pH 9.6). […] Plates were read at 450 nm in a SpectraMax Plus spectrophotometer (Molecular Devices; Sunnyvale, Calif.) and analyzed by SOFTmax® PRO software. Aβ40 or Aβ42 were quantitated by comparison with the values obtained for each synthetic Aβ standard from the same plate.
Cells were passaged into 6-well plates one day prior to treatment and grown to confluence. […] After treatment, the culture medium was harvested, spun at 14,000 xg, and the supernatant analyzed for Aβ40 or Aβ42 using sandwich ELISA and for secreted APP using Western blot. […]

CC(C)C[C@H](NP(=O)(O)O[C@@H]1O[C@@H](C)[C@H](O)[C@@H](O)[C@H]1O)C(=O)N[C@@H](Cc1c[nH]c2ccccc12)C(=O)O [phosphoramidon]
reversal of the reduction in Aβ concentration in ECE-transfected cells ([1]; ECE-transfected CHO cells treated with phosphoramidon): completely reversed
phosphoramidon-induced accumulation of endogenous Aβ ([1]; parallel cultures of ECE-1a-transfected cells without synthetic Aβ, 24 hr): greater than 600%
increase in secretion of endogenous Aβ ([1]; phosphoramidon-treated ECE-transfected CHO cells, 6 hr): 1.5- to 2 fold
Aβ accumulation (HUVEC cells): virtually undetectable levels of Aβ accumulation unless treated with high doses of phosphoramidon
